Measured values published in patent US9718805B2, “Triazole compounds and their use as gamma secretase modulators” (Acturum Life Science AB, priority 2013, dated 2017).

Legend:
[1] = test system: Aβ42 formation in HEK cell line stably expressing APP with the Swedish mutation (APPswe); experiment: HEK assay (Aβ42 secreted to cell medium, Meso Scale electrochemiluminescence); format: cell-based; details: Homo sapiens, HEK293; HEK cells expressing APPswe; 4-6 hours incubation with test compound; read-out: pIC50 Aβ42 HEK assay (converted)
Description: (§1) The level of activity of the compounds on Aβ formation was tested using the following methods:
Compounds were diluted in 100% DMSO and stored at 20° C. prior to use. Human Embryonic Kidney (HEK) cell line stably expressing APP with the Swedish mutation (APPswe) was cultured using Dulbecco's Modified Eagles medium (DMEM) supplied with […] glucose, Na-pyruvate and GlutaMAX, 10% Foetal bovine serum, 100 U/mL penicillin-streptomycin (PEST), 1× non-essential amino acids (NEAA), […] Hepes, 100 μg/mL Zeocine. Cells at about 80% confluence were washed with PBS, detached from culture flasks using 1×Trypsin/EDTA diluted in PBS, re-suspended in cell media and plated in 384-well poly-d-lysine coated cell culture plates at about 10000-15000 cells/well, in 25 μL cell media. Optionally, cryo-preserved cells (frozen and stored at −140° C. in 90% cell media and 10% DMSO) were thawed, washed and plated as above. Next the cells were incubated for 15-24 h at 37° C. and 5% CO2, after which cell medium was changed. Fresh medium containing test compound diluted ×200 from prepared compound plate was added to the cells before further incubation for 4-6 hours at 37° C. and 5% CO2. After incubation with test compound the amount of Aβ peptides, including Aβ42, Aβ40, Aβ39, Aβ38 and Aβ37, secreted to cell medium was analyzed using the electrochemiluminescence assay technology from Meso Scale Discovery Technology, in combination with specific antibodies raised against the different Aβ peptides. Potential cytotoxic effects of the compounds were assayed by measuring the ATP content (ViaLight) from cell lysate.

[2] = test system: Aβ42 formation in primary cortical neuronal cells (PCN); experiment: PCN assay (Aβ42 secreted by primary cortical neuronal cells, ELISA); format: cell-based; details: mouse primary cortical neuronal cells; 16-20 hours incubation with test compound; read-out: pIC50 Aβ42 PCN assay (converted)
Description: as §1
Compounds were diluted in 100% DMSO and stored at 20° C. prior to use. Primary cortical neuronal cells (PCN) were isolated from 16-day mouse embryos and cultured in Ham's F12 media containing 10% Foetal bovine serum, 10 mM Hepes, 2 mM L-glutamine and 100 U/ml Penicillin-Streptomycin. 150000-250000 cells/well, in 200 μl cell media were seeded onto 96-well poly-D-Lysine coated plates. After incubation at 37° C., 5% CO2 for five days, the media was exchanged for fresh medium containing test compound diluted ×100, before further incubation for 16-20 hours at 37° C. and 5% CO2. After incubation with test compound the amount of Aβ42 peptides secreted to cell medium was analyzed using the solid phase sandwich Enzyme-Linked-Immuno-Sorbent Assay (ELISA)-kit from Invitrogen for detection of mouse βAmyloid 1-42. Potential cytotoxic effects of the compounds were assayed by measuring the ATP content (Via Light) from cell lysate.

| SMILES | IC50 [1] [nM] | IC50 [2] [nM] |
| --- | --- | --- |
| COc1cc(Nc2nc(NCC3CC3)n(C)n2)ccc1-n1cnc(C)c1 [Example 1, N^5-(Cyclopropylmethyl)-N^3-[3-methoxy-4-(4-methyl-1H-imidazol-1-yl)phenyl]-1-methyl-1H-1,2,4-triazole-3,5-diamine] | 79.4 | 158 |
| COc1cc(Nc2nc(N(CC3CC3)CC3CC3)n(C)n2)ccc1-n1cnc(C)c1 [Example 2, 5-N,5-N-Bis(cyclopropylmethyl)-3-N-[3-methoxy-4-(4-methyl-1H-imidazol-1-yl)phenyl]-1-methyl-1H-1,2,4-triazole-3,5-diamine] | 63.1 |  |
| COc1cc(Nc2nc(NCC3CC3)n(CC(C)C)n2)ccc1-n1cnc(C)c1 [Example 3, 5-N-(Cyclopropylmethyl)-3-N-[3-methoxy-4-(4-methyl-1H-imidazol-1-yl)phenyl]-1-(2-methylpropyl)-1H-1,2,4-triazole-3,5-diamine] | 63.1 |  |
| COc1cc(Nc2nc(N(C)CC(C)(C)O)n(Cc3ccccc3)n2)ccc1-n1cnc(C)c1 [Example 4, 1-[(1-Benzyl-3-{[3-methoxy-4-(4-methyl-1H-imidazol-1-yl)phenyl]amino}-1H-1,2,4-triazol-5-yl)(methyl)amino]-2-methylpropan-2-ol] | 100 |  |
| COc1cc(Nc2nc(N(C)CC3CC3)n(CC(C)(C)O)n2)ccc1-n1cnc(C)c1 [Example 5, 1-{5-[(Cyclopropylmethyl)(methyl)amino]-3-{[3-methoxy-4-(4-methyl-1H-imidazol-1-yl)-phenyl]amino}-1H-1,2,4-triazol-1-yl}-2-methylpropan-2-ol] | 79.4 |  |
| COc1cc(Nc2nc(NCc3ccccc3)n(CC(C)(C)O)n2)ccc1-n1cnc(C)c1 [Example 6, 1-[5-(Benzylamino)-3-{[3-methoxy-4-(4-methyl-1H-imidazol-1-yl)phenyl]amino}1H-1,2,4-triazol-1-yl]-2-methylpropan-2-ol] | 20 | 15.8 |
| COc1cc(Nc2nc(N(C)Cc3ccccc3)n(CC(C)(C)O)n2)ccc1-n1cnc(C)c1 [Example 7, 1-{5-[Benzyl(methyl)amino]-3-{[3-methoxy-4-(4-methyl-1H-imidazol-1-yl)phenyl]amino}-1H-1,2,4-triazol-1-yl}-2-methylpropan-2-ol] | 15.8 | 20 |
